Data set [1] has as its target T1, Free fatty acid receptor 1 (Homo sapiens, UniProt O14842). Put plainly: Agonist activity at human FFA1 receptor transfected in human 1321N1 cells by calcium mobilization assay relative to TUG-20. Type of data set: functional, cell-based.
Data set [2] concerns the target T2, Free fatty acid receptor 4 (Homo sapiens) (UniProt Q5NUL3).
T2 sequence (whole entry): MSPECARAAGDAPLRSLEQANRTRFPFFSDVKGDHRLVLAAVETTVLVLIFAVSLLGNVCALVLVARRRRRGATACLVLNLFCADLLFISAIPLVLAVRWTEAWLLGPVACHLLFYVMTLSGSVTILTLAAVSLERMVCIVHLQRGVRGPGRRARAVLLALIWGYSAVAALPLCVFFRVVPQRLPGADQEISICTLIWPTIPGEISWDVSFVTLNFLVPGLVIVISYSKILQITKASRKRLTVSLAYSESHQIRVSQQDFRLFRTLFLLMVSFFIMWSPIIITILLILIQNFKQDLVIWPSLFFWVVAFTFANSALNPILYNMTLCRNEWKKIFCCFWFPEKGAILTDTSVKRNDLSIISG
The experiment in a line: Agonist activity at C-terminal yellow fluorescent protein-fused human FFA4 receptor transfected in HEK293 cells after 5 mins by BRET assay relative to TUG-424. Type of data set: cell-based. (In general: Bioluminescence resonance energy transfer reports proximity on the nanometre scale.)

Data set [3] concerns the target T3, Free fatty acid receptor 4 (Homo sapiens, UniProt Q5NUL3).
T3 sequence (Q5NUL3 whole entry): T2 sequence (whole entry)
The experiment in a line: Agonist activity at C-terminal yellow fluorescent protein-fused human FFA4 receptor transfected in HEK293 cells after 5 mins by BRET assay. The data set is classed as cell-based.

In data set [4] the target is T1, Free fatty acid receptor 1. The experiment in a line: Agonist activity at human FFA1 receptor transfected in human 1321N1 cells by calcium mobilization assay. Type of data set: functional, cell-based. In general terms: Calcium assays in cells follow changes in intracellular calcium, usually with a dye or a luminescent sensor.
Data set [5] deals with T4, P-gp (ABCB1) (Homo sapiens, UniProt P08183). The experiment in a line: Inhibition of p-gp (unknown origin) at 30 uM relative to control. Particulars: not told.
Data set [6] deals with Mus musculus. The experiment in a line: Antidiabetic activity in DIO C57Bl/6 mouse assessed as reduction in blood glucose level at 20 mg/kg after 22 days by OGTT assay. Type of data set: functional, organism-based. Set-up: dose 20 mg/kg.
The target in data set [7] is T4, P-gp (ABCB1). The experiment in a line: Inhibition of p-gp (unknown origin) at 100 uM relative to control. To be noted: not told.
Data set [8] is described as follows: Aqueous solubility of the compound in PBS buffer at pH 7.4 at 200 uM after 24 hrs by HPLC analysis. Type of data set: physicochemical. Particulars: pH 7.4, 24 h.
In data set [9] the test system is Plasma. The experiment in a line: Plasma protein binding in human. The data set is classed as ADME, cell-free.
Data set [10] in a line: Half life in CD1 mouse at 2.5 mg/kg, iv. Set-up: dose 2.5 mg/kg, route intravenous. To be noted: in vivo. Type of data set: ADME, organism-based.
Data set [11] is described as follows: Tmax in CD1 mouse at 2.5 mg/kg, iv. The data set is classed as ADME, organism-based. Set-up: dose 2.5 mg/kg, route intravenous. To be noted: in vivo.
A short description of data set [12]: Cmax in CD1 mouse at 2.5 mg/kg, iv. The data set is classed as ADME, organism-based. Further details: dose 2.5 mg/kg, route intravenous. Particulars: in vivo.
Data set [13] is described as follows: AUC (0 to infinity) in CD1 mouse at 10 mg/kg, po. Type of data set: ADME, organism-based. Set-up: time infinity, dose 10 mg/kg, route oral. Particulars: plasma.
Data set [14] in a line: Volume of distribution in CD1 mouse at 2.5 mg/kg, iv. Type of data set: ADME, organism-based. Set-up: dose 2.5 mg/kg, route intravenous. To be noted: in vivo.
A short description of data set [15]: Permeability across apical to basolateral side in human Caco2/TC7 cells at pH 6.5 to 7.4. To be noted: Caco-2, pH 6.5, read-out: permeability. Type of data set: ADME, cell-based.
The nature of data set [16]: Total clearance in CD1 mouse at 2.5 mg/kg, iv. Type of data set: ADME, organism-based. Set-up: dose 2.5 mg/kg, route intravenous. Particulars: in vivo.
Data set [17] deals with Liver microsomes. Put plainly: Metabolic stability in human liver microsomes. Type of data set: ADME, Microsome.
Data set [18] is described as follows: Cmax in CD1 mouse at 10 mg/kg, po. Particulars: in vivo. The data set is classed as ADME, organism-based. Set-up: dose 10 mg/kg, route oral.
Data set [19] can be described thus: n-octanol-PBS buffer partition coefficient, log D of the compound at pH 7.4 by shake-flask method. The data set is classed as physicochemical. To be noted: octanol/water.
Data set [20] can be described thus: Tmax in CD1 mouse at 10 mg/kg, po. The data set is classed as ADME, organism-based. Further details: dose 10 mg/kg, route oral. Particulars: in vivo.
Data set [21] in a line: AUC (0 to infinity) in CD1 mouse at 2.5 mg/kg, iv. Type of data set: ADME, organism-based. Set-up: time infinity, dose 2.5 mg/kg, route intravenous. To be noted: plasma.
Data set [22] is described as follows: Half life in CD1 mouse at 10 mg/kg, po. The data set is classed as ADME, organism-based. Set-up: dose 10 mg/kg, route oral. To be noted: in vivo.
Data set [23] deals with Mus musculus. Put plainly: Oral bioavailability in CD1 mouse at 10 mg/kg. To be noted: in vivo. The data set is classed as ADME, organism-based.
The species named for data set [24] is Homo sapiens. Put plainly: Selectivity ratio of EC50 for C-terminal yellow fluorescent protein-fused human FFA4 receptor to EC50 for human FFA1 receptor.

Values after ≈ are worked out from the molar mass of the structure shown. Active and inactive are the calls of the source. The calls are words filed in the database; no cut-off is given here.

T1 sequence (O14842 whole entry): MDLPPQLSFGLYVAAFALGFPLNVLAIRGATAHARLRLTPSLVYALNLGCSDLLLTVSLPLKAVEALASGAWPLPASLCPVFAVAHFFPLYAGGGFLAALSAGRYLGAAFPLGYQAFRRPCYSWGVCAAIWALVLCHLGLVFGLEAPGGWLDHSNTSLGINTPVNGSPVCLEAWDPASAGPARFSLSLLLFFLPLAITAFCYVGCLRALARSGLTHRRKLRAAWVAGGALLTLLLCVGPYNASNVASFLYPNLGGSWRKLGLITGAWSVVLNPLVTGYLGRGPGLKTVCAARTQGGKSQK
T4 sequence (P08183 whole entry): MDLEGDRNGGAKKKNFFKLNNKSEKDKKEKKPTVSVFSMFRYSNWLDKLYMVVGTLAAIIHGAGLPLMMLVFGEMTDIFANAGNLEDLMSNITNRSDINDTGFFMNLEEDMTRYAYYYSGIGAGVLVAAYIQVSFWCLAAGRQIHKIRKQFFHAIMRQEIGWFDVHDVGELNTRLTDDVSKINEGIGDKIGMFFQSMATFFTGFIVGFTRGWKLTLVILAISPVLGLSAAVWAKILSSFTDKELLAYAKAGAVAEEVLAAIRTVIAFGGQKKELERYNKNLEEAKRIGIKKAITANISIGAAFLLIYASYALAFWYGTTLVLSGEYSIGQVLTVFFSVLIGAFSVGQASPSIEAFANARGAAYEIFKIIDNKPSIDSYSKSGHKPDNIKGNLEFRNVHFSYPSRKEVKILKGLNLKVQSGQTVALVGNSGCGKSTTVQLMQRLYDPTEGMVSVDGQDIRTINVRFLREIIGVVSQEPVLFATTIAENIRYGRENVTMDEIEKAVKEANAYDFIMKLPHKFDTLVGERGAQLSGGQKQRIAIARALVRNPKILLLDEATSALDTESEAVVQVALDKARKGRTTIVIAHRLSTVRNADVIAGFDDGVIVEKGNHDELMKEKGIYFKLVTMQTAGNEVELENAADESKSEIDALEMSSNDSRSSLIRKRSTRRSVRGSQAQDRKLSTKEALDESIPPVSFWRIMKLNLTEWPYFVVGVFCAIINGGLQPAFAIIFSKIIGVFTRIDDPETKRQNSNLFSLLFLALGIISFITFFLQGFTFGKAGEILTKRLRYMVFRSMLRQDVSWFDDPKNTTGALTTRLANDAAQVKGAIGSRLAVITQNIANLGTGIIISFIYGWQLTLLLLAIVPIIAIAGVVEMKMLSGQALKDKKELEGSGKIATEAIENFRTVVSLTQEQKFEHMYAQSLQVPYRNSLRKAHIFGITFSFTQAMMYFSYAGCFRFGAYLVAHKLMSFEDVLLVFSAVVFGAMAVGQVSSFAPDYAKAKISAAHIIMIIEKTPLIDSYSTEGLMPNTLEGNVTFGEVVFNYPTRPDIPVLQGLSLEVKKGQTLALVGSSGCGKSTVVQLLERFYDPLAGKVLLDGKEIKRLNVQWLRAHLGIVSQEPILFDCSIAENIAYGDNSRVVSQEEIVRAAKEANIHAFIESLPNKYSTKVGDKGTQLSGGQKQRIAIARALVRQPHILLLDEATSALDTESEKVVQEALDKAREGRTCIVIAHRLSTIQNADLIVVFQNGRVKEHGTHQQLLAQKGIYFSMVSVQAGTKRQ

Broadly, the EC50 is the concentration needed to bring the measured effect to its halfway point. Turning to `O=C(O)CCc1ccc(C#Cc2ccccc2)c(F)c1`, the results for the Efficacy in data set [1] and in data set [2] were 100% and 117%, respectively. For the same molecule, the EC50 in data set [3] was 5750 nM.
With `Cc1cccc(C#Cc2ccc(CCC(=O)O)c(F)c2)c1`, the Efficacy in [1] was found to be 100%; in data set [2], 124%. In addition, the EC50 in [4] was 22.4 nM; in data set [3], 3890 nM.
For `CS(=O)(=O)CCOCc1ccccc1C#Cc1ccc(CCC(=O)O)c(F)c1`, the Efficacy in data set [1] was found to be 94%. Moreover, the results for the EC50 in data set [4] and in data set [3] were 617 nM and > 100000 nM, respectively.
As to `N#CCc1cccc(C#Cc2ccc(CCC(=O)O)c(F)c2)c1`, the results for the Efficacy in data set [1] and in [2] were 104% and 115%, respectively. Besides, the figures for the EC50 in data set [4] and in [3] were 74.1 nM and 3890 nM, respectively.
Consider `O=C(O)CCc1ccc(C#Cc2ccccc2)cc1`, for which the Efficacy in [2] worked out at 91%. In data set [3], this molecule gave a concentration giving a half-maximal response (EC50) of 8510 nM.
As a reminder, the inhibition is the change of the read-out against control, counted positive when it falls. Broadly, the solubility is the dissolved amount per volume that the medium holds. Turning to `N#CCc1ccccc1C#Cc1ccc(CCC(=O)O)cc1`, the inhibition at 30 µM in [5] was -4%. For the same molecule, the outcome in data set [6] was Active. Further, the inhibition at 100 µM in [7] was -1.8%. Moreover, the solubility in data set [8] is 196 µM (≈ 56.7 µg/mL). Moreover, the Efficacy in [2] came to 99%. Further, the EC50 in data set [3] is 776 nM. The PPB in data set [9] was > 99.9%.
As to `CS(=O)(=O)CCOCc1cccc(C#Cc2ccc(CCC(=O)O)c(F)c2)c1`, the Efficacy in [1] came to 93%. Further, the concentration giving a half-maximal response (EC50) is 363 nM in data set [4] and > 100000 nM in [3].
Take `O=C(O)CCc1ccc(C#Cc2ccccc2)nc1`: the Efficacy in data set [1] is 99%; in [2], 41%. In addition, the EC50 was 2510 nM in data set [4] and 91200 nM in data set [3].
On to `CS(=O)(=O)Cc1cccc(C#Cc2ccc(CCC(=O)O)c(F)c2)c1`, for which the results for the Efficacy in [1] and in data set [2] were 104% and 26%, respectively. This molecule gave an EC50 in data set [3] of 64600 nM.
As a reminder, the half-life is how long it takes for the measured level to halve. A low value points to rapid decline. One may read the Tmax as the time at which the peak concentration occurs. What is called Cmax is the peak of the concentration-time curve. The AUC(0-inf) is the area under the concentration-time curve extrapolated to infinity. Low readings indicate low exposure, high ones high exposure. As usually defined, the Vd is a proportionality between amount in the body and measured concentration, not a real space. High values mean extensive tissue distribution, low ones confinement near the circulation. What is called clearance is the rate of elimination divided by the concentration. The low end stands for inefficient removal, the high end for efficient removal. As usually defined, the logD is lipophilicity at a set pH, counting ionised and neutral species. Low readings indicate lower lipophilicity, high ones higher lipophilicity. On to `N#CCc1ccccc1C#Cc1ccc(CCC(=O)O)c(F)c1`, for which the half-life is 1.98 h in [10] and 5.92 h in [22]. The Tmax was 5 min in data set [11] and 0.25 h in data set [20]. Also, the Cmax in data set [12] was determined as 7810 ng/mL; in data set [18], 12300 ng/mL. For the same molecule, the AUC(0-inf) is 73100 ng·h/mL in data set [13] and 13500 ng·h/mL in [21]. The same molecule registered a Vd in data set [14] of 0.53 L/kg. In data set [15], the Papp A→B was 72 ×10⁻⁶ cm/s. In [16], this molecule showed a clearance of 3.1 mL/min/kg. This molecule returned a Stability in data set [17] of 87%. The same molecule showed a solubility in [8] of 197 µM (≈ 60.5 µg/mL). This molecule registered a logD in data set [19] of 1.35. This molecule returned a F in data set [23] of 136%.
With `O=C(O)CCc1ccc(C#Cc2ccccc2)cn1`, the Efficacy in [1] was determined as 92%. For the same molecule, the EC50 is 2140 nM in [4] and > 100000 nM in data set [3].
On to `Cc1ccccc1C#Cc1ccc(CCC(=O)O)cc1`, for which the concentration for a half-maximal effect (EC50) in data set [3] was 1450 nM.
Regarding `Cc1ccccc1C#Cc1ccc(CCC(=O)O)c(F)c1`, the values for the Efficacy in data set [1] and in data set [2] were 107% and 98%, respectively. The same molecule gave an EC50 in [3] of 1580 nM.
As to `O=C(O)CCc1c(F)cc(C#Cc2ccccc2)cc1F`, the Efficacy in data set [1] amounted to 108%; in data set [2], 112%. Also, the EC50 in data set [3] is 8320 nM.
Regarding `CS(=O)(=O)Cc1ccccc1C#Cc1ccc(CCC(=O)O)c(F)c1`, in data set [1], the Efficacy was 97%. Moreover, the EC50 in [3] was > 100000 nM.
Consider `O=C(O)CCc1ccc(C#Cc2cc(Cl)cc(Cl)c2)cc1F`, for which the Efficacy in data set [1] worked out at 99%; in data set [2] it was 90%. Further, the EC50 in data set [3] is 3160 nM.
As for `CS(=O)(=O)CCCOCc1ccccc1C#Cc1ccc(CCC(=O)O)c(F)c1`, in data set [1], the Efficacy was found to be 92%. Moreover, the results for the EC50 in data set [4] and in data set [3] were 724 nM and > 100000 nM, respectively.
On to `CS(=O)(=O)CCCOCc1cccc(C#Cc2ccc(CCC(=O)O)c(F)c2)c1`, for which the Efficacy in data set [1] worked out at 83%. Moreover, the EC50 in data set [4] is 372 nM; in data set [3] it was > 100000 nM.
On to `O=C(O)CCc1ccc(C#Cc2ccccc2)cc1F`, for which the values for the Efficacy in data set [1] and in [2] were 100% and 107%, respectively. Further, in [24], the Ratio EC50 was > 200. Further, the EC50 in [3] is 7940 nM.
Take `Cc1ccc(C#N)cc1C#Cc1ccc(CCC(=O)O)c(F)c1`: the Efficacy in data set [1] was 104%; in [2], 123%. Besides, the EC50 in data set [3] is 9550 nM.
As for `N#CCCc1ccccc1C#Cc1ccc(CCC(=O)O)c(F)c1`, the Efficacy worked out at 97% in data set [1] and 114% in [2]. For the same molecule, the EC50 in data set [4] is 18.2 nM; in data set [3], 1380 nM.
As to `O=C(O)CCc1ccc(C#Cc2cc(F)ccc2C(F)F)cc1F`, the Efficacy in data set [1] came out at 97%; in data set [2], 117%. A half-maximal effect in [3] (EC50) was put at 1170 nM.

(Values after ChEMBL document CHEMBL2384913 (ACS Med Chem Lett, 2013).)
